Measured values reported in PubChem BioAssay (NCI).
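These data come from cells grown in 96-well plates and exposed to compound for 48 hours at five concentrations. Here, GI50 denotes the concentration required for 50% inhibition of growth. TGI denotes the concentration required for complete inhibition of growth.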

Assays:
Experiment in all cases: growth of human tumour cells (NCI), 48 h
SF-268 CNS = test system: SF-268 CNS
HOP-62 NSCLC = test system: HOP-62 NSCLC
TK-10 renal = test system: TK-10 renal
786-0 renal = test system: 786-0 renal
ACHN renal = test system: ACHN renal
OVCAR-5 ovarian = test system: OVCAR-5 ovarian
NCI-H226 lung = test system: NCI-H226 lung
OVCAR-3 ovarian = test system: OVCAR-3 ovarian
A498 renal = test system: A498 renal
T-47D breast = test system: T-47D breast
NCI-H460 lung = test system: NCI-H460 lung
SR leukemia = test system: SR leukemia
A549 NSCLC = test system: A549 NSCLC
SK-MEL-5 melanoma = test system: SK-MEL-5 melanoma
MOLT-4 leukemia = test system: MOLT-4 leukemia
MALME-3M melanoma = test system: MALME-3M melanoma
MDA-MB-231 breast = test system: MDA-MB-231 breast
SK-OV-3 ovarian = test system: SK-OV-3 ovarian
SF-539 CNS = test system: SF-539 CNS
SF-295 CNS = test system: SF-295 CNS
SK-MEL-2 melanoma = test system: SK-MEL-2 melanoma
UO-31 renal = test system: UO-31 renal
KM20L2 colon = test system: KM20L2 colon
CAKI-1 renal = test system: CAKI-1 renal
IGROV1 ovarian = test system: IGROV1 ovarian
MCF7 breast = test system: MCF7 breast
DU-145 prostate = test system: DU-145 prostate
NCI-H522 lung = test system: NCI-H522 lung
UACC-62 melanoma = test system: UACC-62 melanoma
COLO 205 colon = test system: COLO 205 colon
SN12C renal = test system: SN12C renal
SNB-19 CNS = test system: SNB-19 CNS
EKVX NSCLC = test system: EKVX NSCLC
HL-60(TB) leukemia = test system: HL-60(TB) leukemia
OVCAR-4 ovarian = test system: OVCAR-4 ovarian
HOP-92 NSCLC = test system: HOP-92 NSCLC
HCT-15 colon = test system: HCT-15 colon
U251 CNS = test system: U251 CNS
HCT-116 colon = test system: HCT-116 colon
K-562 leukemia = test system: K-562 leukemia
RPMI-8226 leukemia = test system: RPMI-8226 leukemia
SK-MEL-28 melanoma = test system: SK-MEL-28 melanoma
HT29 colon = test system: HT29 colon
M14 melanoma = test system: M14 melanoma
HCC-2998 colon = test system: HCC-2998 colon
SNB-75 CNS = test system: SNB-75 CNS
LOX IMVI melanoma = test system: LOX IMVI melanoma
SW-620 colon = test system: SW-620 colon
KM12 colon = test system: KM12 colon
NCI-H23 lung = test system: NCI-H23 lung
OVCAR-8 ovarian = test system: OVCAR-8 ovarian
UACC-257 melanoma = test system: UACC-257 melanoma

CCCCCC(=O)OC[n+]1ccc2c(C)c3[nH]c4ccc(OC)cc4c3c(C)c2c1
TGI (SF-268 CNS): > 100 µM | TGI (HOP-62 NSCLC): 2.28 µM | TGI (TK-10 renal): 9.74 µM | TGI (786-0 renal): 1.51 µM | TGI (ACHN renal): 4.78 µM | TGI (OVCAR-5 ovarian): 2.24 µM | TGI (NCI-H226 lung): 31 µM | TGI (OVCAR-3 ovarian): > 100 µM | TGI (A498 renal): 2.17 µM | TGI (T-47D breast): 13.1 µM | TGI (NCI-H460 lung): 1.04 µM | TGI (SR leukemia): > 100 µM | TGI (A549 NSCLC): 13.7 µM | TGI (SK-MEL-5 melanoma): > 100 µM | TGI (MOLT-4 leukemia): > 100 µM | TGI (MALME-3M melanoma): > 63.6 µM | TGI (MDA-MB-231 breast): 1.83 µM | TGI (SK-OV-3 ovarian): 3.03 µM | TGI (SF-539 CNS): 1.17 µM | TGI (SF-295 CNS): 1.72 µM | TGI (SK-MEL-2 melanoma): > 100 µM | TGI (UO-31 renal): 3.31 µM | TGI (KM20L2 colon): > 100 µM | TGI (CAKI-1 renal): > 23 µM | TGI (IGROV1 ovarian): 3.71 µM | TGI (MCF7 breast): 1.96 µM | TGI (DU-145 prostate): 3.19 µM | TGI (NCI-H522 lung): > 100 µM | TGI (UACC-62 melanoma): 3.31 µM

CC(=O)[O-].CC(=O)[O-].O=C([CH-]C(=O)c1ccccc1)c1ccccc1.[Nd+3].[OH3+]
GI50 (SF-268 CNS): 16.8 µM | TGI (SF-268 CNS): > 100 µM | GI50 (HOP-62 NSCLC): 14.7 µM | TGI (HOP-62 NSCLC): 73.6 µM | GI50 (TK-10 renal): 27 µM | TGI (TK-10 renal): 87.6 µM | GI50 (COLO 205 colon): 27.9 µM | TGI (COLO 205 colon): > 100 µM | GI50 (786-0 renal): 19.4 µM | TGI (786-0 renal): 63.9 µM | GI50 (SN12C renal): 23.5 µM | TGI (SN12C renal): 92.3 µM | GI50 (SNB-19 CNS): 30.1 µM | TGI (SNB-19 CNS): > 100 µM | GI50 (ACHN renal): 31.3 µM | TGI (ACHN renal): > 100 µM | GI50 (EKVX NSCLC): 24.5 µM | TGI (EKVX NSCLC): 76.5 µM | GI50 (OVCAR-5 ovarian): 68.4 µM | TGI (OVCAR-5 ovarian): > 100 µM | GI50 (HL-60(TB) leukemia): 7.85 µM | TGI (HL-60(TB) leukemia): 31.8 µM | GI50 (NCI-H226 lung): 13.8 µM | TGI (NCI-H226 lung): 60.6 µM | GI50 (OVCAR-3 ovarian): 10.7 µM | TGI (OVCAR-3 ovarian): 33.5 µM | GI50 (OVCAR-4 ovarian): 27 µM | TGI (OVCAR-4 ovarian): > 100 µM | GI50 (A498 renal): 43.1 µM | TGI (A498 renal): > 100 µM | GI50 (HOP-92 NSCLC): 20.1 µM | TGI (HOP-92 NSCLC): 63.8 µM | GI50 (HCT-15 colon): 19.4 µM | TGI (HCT-15 colon): > 100 µM | GI50 (U251 CNS): 16.7 µM | TGI (U251 CNS): > 100 µM | GI50 (HCT-116 colon): 19.7 µM | TGI (HCT-116 colon): > 100 µM | GI50 (K-562 leukemia): 7.26 µM | TGI (K-562 leukemia): > 100 µM | GI50 (RPMI-8226 leukemia): 22.8 µM | TGI (RPMI-8226 leukemia): > 100 µM | GI50 (NCI-H460 lung): 16.7 µM | TGI (NCI-H460 lung): > 100 µM | GI50 (SK-MEL-28 melanoma): 23.3 µM | TGI (SK-MEL-28 melanoma): 81.2 µM | GI50 (A549 NSCLC): 28.2 µM | TGI (A549 NSCLC): 84.3 µM | GI50 (SK-MEL-5 melanoma): 14.5 µM | TGI (SK-MEL-5 melanoma): 33.9 µM | GI50 (HT29 colon): 20.9 µM | TGI (HT29 colon): 89.6 µM | GI50 (MOLT-4 leukemia): 10.6 µM | TGI (MOLT-4 leukemia): > 100 µM | GI50 (MALME-3M melanoma): 26.1 µM | TGI (MALME-3M melanoma): 85.2 µM | GI50 (M14 melanoma): 20.7 µM | TGI (M14 melanoma): 53 µM | GI50 (SK-OV-3 ovarian): 27 µM | TGI (SK-OV-3 ovarian): 90.5 µM | GI50 (SF-539 CNS): 31.6 µM | TGI (SF-539 CNS): 93.5 µM | GI50 (HCC-2998 colon): 25 µM | TGI (HCC-2998 colon): > 100 µM | GI50 (SF-295 CNS): 10.7 µM | TGI (SF-295 CNS): 35.2 µM | GI50 (SK-MEL-2 melanoma): 16.4 µM | TGI (SK-MEL-2 melanoma): 50.7 µM | GI50 (SNB-75 CNS): 6.24 µM | TGI (SNB-75 CNS): 32.9 µM | GI50 (UO-31 renal): 17 µM | TGI (UO-31 renal): 49.3 µM | GI50 (LOX IMVI melanoma): 22.4 µM | TGI (LOX IMVI melanoma): > 100 µM | GI50 (SW-620 colon): 16.3 µM | TGI (SW-620 colon): > 100 µM | GI50 (KM12 colon): 14 µM | TGI (KM12 colon): > 100 µM | GI50 (KM20L2 colon): 30.5 µM | TGI (KM20L2 colon): > 100 µM | GI50 (CAKI-1 renal): 27.9 µM | TGI (CAKI-1 renal): 91.3 µM | GI50 (IGROV1 ovarian): 28.5 µM | TGI (IGROV1 ovarian): > 100 µM | GI50 (NCI-H23 lung): 18.7 µM | TGI (NCI-H23 lung): 57.7 µM | GI50 (OVCAR-8 ovarian): 15.8 µM | TGI (OVCAR-8 ovarian): > 100 µM | GI50 (UACC-257 melanoma): 17.9 µM | TGI (UACC-257 melanoma): 54.9 µM | GI50 (NCI-H522 lung): 13.2 µM | TGI (NCI-H522 lung): 43.6 µM | GI50 (UACC-62 melanoma): 16.5 µM | TGI (UACC-62 melanoma): 48.6 µM
